We go through 4 molecules from paper PMC7652251, “Anti-aging Effects of Mangosteen Peel Extract and Its Phytochemical Compounds: Antioxidant Activity, Enzyme Inhibition and Molecular Docking Simulation” (Tropical Life Sciences Research, 2020).

The target of test [1] is T1, porcine pancreas elastase (Sus scrofa, UniProt P00772).
T1 construct: gene CELA1; native enzyme from porcine pancreas, commercial
Kind of test: absorbance […] nm, p-nitroanilide release. It counts as biochemical.

Test [2] deals with T2, bovine testes hyaluronidase type I-S (Bos taurus, UniProt F1MTV1).
T2 construct: gene SPAM1; native enzyme from bovine testes, commercial
T2 sequence (F1MTV1 36-553): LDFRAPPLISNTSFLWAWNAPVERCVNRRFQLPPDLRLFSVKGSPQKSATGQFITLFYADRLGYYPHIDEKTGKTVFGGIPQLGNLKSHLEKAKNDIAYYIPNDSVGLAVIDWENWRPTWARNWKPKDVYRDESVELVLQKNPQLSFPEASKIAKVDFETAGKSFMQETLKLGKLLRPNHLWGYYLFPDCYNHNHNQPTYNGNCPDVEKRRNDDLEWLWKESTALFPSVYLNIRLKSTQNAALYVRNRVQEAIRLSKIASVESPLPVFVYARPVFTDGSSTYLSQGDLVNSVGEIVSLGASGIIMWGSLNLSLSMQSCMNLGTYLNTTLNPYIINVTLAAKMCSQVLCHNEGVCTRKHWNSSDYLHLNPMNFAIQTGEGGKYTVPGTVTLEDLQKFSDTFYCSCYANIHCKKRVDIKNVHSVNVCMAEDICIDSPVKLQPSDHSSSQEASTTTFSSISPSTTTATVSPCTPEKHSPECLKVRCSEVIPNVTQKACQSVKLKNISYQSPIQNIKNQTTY
Briefly: turbidity […] nm, hyaluronic acid with acidic albumin. It counts as biochemical. As to conditions: phosphate 300 mM pH 5.35, 37°C, 45 min.

Test [3] deals with T3, Collagenase from Clostridium histolyticum.
T3 construct: gene colG
Briefly: absorbance […] nm, FALGPA hydrolysis. It is filed as biochemical, Hathewaya histolytica. Particulars: N-[3-(2-furyl)acryloyl]-Leu-Gly-Pro-Ala 1 mM, Tricine 50 mM pH 7.5, 37°C, 20 min pre-incubation.

A further test concerns the target T4, mushroom tyrosinase.
T4 construct: gene PPO1; PPO3 (2Y9X) is only the docking model
Briefly: absorbance […] nm, L-DOPA oxidation. It counts as biochemical. Particulars: L-DOPA 1.5 mM stock (20 μL added), potassium phosphate 20 mM pH 6.8, room temperature, 15 min pre-incubation.

T1 sequence (P00772 27-266): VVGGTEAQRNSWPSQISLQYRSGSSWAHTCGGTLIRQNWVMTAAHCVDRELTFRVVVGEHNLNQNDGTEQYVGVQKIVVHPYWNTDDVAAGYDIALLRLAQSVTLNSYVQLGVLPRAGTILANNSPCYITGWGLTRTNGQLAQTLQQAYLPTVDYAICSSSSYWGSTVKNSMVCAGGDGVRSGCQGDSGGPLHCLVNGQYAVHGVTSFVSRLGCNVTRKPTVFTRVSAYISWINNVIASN

Consider `CC(C)=CCc1c(O)cc2oc3cc(O)c(O)c(CCC(C)(C)O)c3c(=O)c2c1O` [Garcinone C], for which the IC50 (in general, the concentration that gives 50% inhibition) in test [1] worked out at 49.1 µM; in test [2], 180 µM; in test [3], 79.2 µM; on mushroom tyrosinase, 159 µM.

Regarding `COc1c(O)cc2oc3cc(O)c(CC=C(C)C)c(O)c3c(=O)c2c1CC=C(C)C` [Alpha-mangostin], the half-maximal inhibitory concentration (IC50) in test [1] stood at 50 µM; in test [2] it was 39.5 µM; in test [3], 23.8 µM; against mushroom tyrosinase it was 173 µM.

With `CC(C)=CCc1c(O)cc2oc3cc(O)c(O)c(CC=C(C)C)c3c(=O)c2c1O` [Gamma-mangostin], the 50% inhibitory concentration (IC50) in test [1] stood at 156 µM; in test [2], 60.2 µM; in test [3], 140 µM; at mushroom tyrosinase it was 127 µM.

For `COc1c(O)cc2oc3cc(O)c(CC=C(C)C)c(O)c3c(=O)c2c1CCC(C)(C)O` [Garcinone D], the IC50 in test [1] was 49.8 µM; in test [2], 204 µM; in test [3], 159 µM; against mushroom tyrosinase it was 252 µM.
